Source: US20170285010A1, “Analytical Methods and Arrays for Use in the Same” (SENZAGEN AB, priority 2014, published 2017)
Read-outs that look alike come from different tables or passages of the source.

Columns and labels:
[1] = test system: MUTZ-3; assay: GARD Respiratory Prediction Signature (GRPS) SVM classification of the independent test dataset; settings: for SVM decision value: MUTZ-3, 24 h stimulation at GARD input concentration, 389 GRPS transcripts
Experimental: (§1) The human acute myelomonocytic leukemia cell line MUTZ-3[68,69] was obtained from Leibniz-lnstitut DSMZ-Deutsche Sammlung von Mikroorganismen and Zellkulturen (DSMZ, Braunschweig, Germany). Maintenance of cells, chemical stimulation of MUTZ-3 and all subsequent isolation of mRNA and preparation of cDNA were performed as previously described. In short, a phenotypic control of MUTZ-3 was performed using flow cytometry prior to chemical stimulation to ensure cells were in an immature state. The following FITC-conjugated mouse monoclonal antibodies (mAbs) were used: CD1a (DakoCytomation, Glostrup, Denmark), CD34, CD86, HLA-DR, IgG1 (BD Biosciences, Franklin Lakes, N.J.). The following PE-conjugated mouse monoclonal antibodies were used: CD14 (DakoCytomation), CD54, CD80, IgG1 (BD Biosciences). Cell viability was determined using Propidium Iodide (BD Biosciences) staining. Samples were run on FACSCanto II instrument. Data was acquired using FACS Diva software (BD Biosciences) and analyzed using FCS Express V4 (De Novo Software, Los Angeles, Calif.). Gating was performed to exclude cell debris and non-viable cells based on forward- and side-scattering properties and quadrants established using isotype-controls. During chemical exposure, cells were seeded at 200.000 cells/ml in 24-well plates and exposed to chemical compound at the GARD input concentration. Stimulated cells were harvested after 24 h incubation at 37° C., 5% CO2 and RNA was isolated with TRIzol® reagent (Life Technologies, Carlsbad, Calif.) using standardized protocols provided by the manufacturer. In parallel, a control of the maturity state of the cells was performed by flow cytometric analysis of CD86. Preparation of cDNA and hybridization, washing and scanning of the Human Gene 1.0 ST Arrays (Affymetrix, Santa Clara, Calif., USA) was performed, according to standardized protocols provided by the manufacturer (Affymetrix).
Gene expression data obtained from the Human Gene 1.0 ST Arrays were normalized using the Single-Channel array normalization (SCAN) algorithm, and potential batch effects between different set of experiments were adjusted using the ComBat empirical bayes method. Normalizations and batch adjustments were performed in R statistical software using the open software Bioconductor v2.14 [73] with the additional software packages SCAN.UPC [70] and sva . Normalized data was imported into Qlucore Omics Explorer 3.0 (Qlucore AB, Lund, Sweden) and visualized using Principal Component Analysis (PCA). Predictors were selected from a one-way ANOVA p-value filtration, using false discovery rate (FDR) to adjust for multiple hypothesis testing, comparing respiratory sensitizers and non-respiratory sensitizers. […] The Backward Elimination algorithm was modified to minimize the Kullback-Leibler error [53] rather than maximizing the Area Under the Receiver Operating Characteristic (AUC ROC), in order to enable signature optimization in cases where the AUC ROC reaches 1.0. […] The script for Backwards Elimination was programmed in R, with the additional package e1071 [78]. The method by which the predictive genomic biomarker signature was established was validated using cross-validation based on Support Vector Machines (SVM), based on a linear kernel, as described previously. In short, the training dataset was randomly divided into a new cross-validation training dataset comprising 70% of the stimulations, and a cross-validation test dataset comprising 30% of the stimulations. In addition, care was taken to maintain the same proportion between respiratory sensitizers and non-respiratory sensitizers as in the complete training dataset. A new predictive genomic biomarker signature was identified from the cross-validation training dataset using one-way ANOVA p-value filtration as described above.

[2] = test system: MUTZ-3; assay: Chemical cytotoxicity, Rv90 (90% relative viability), propidium iodide staining
Text: A panel of 32 reference chemicals comprising a selection of 10 well characterized respiratory sensitizers and 22 non-respiratory sensitizers, collectively termed the training dataset, were used for cell stimulations in order to establish the predictive genomic biomarker signature. […] Additionally, a panel of 25 chemicals, including 6 respiratory sensitizers and 19 non-respiratory sensitizers, collectively termed the independent test dataset, were used for cell stimulations in order to form an independent testset for validation of the identified predictive genomic biomarker signature. The independent training dataset comprised both control chemicals, included during the training of the model, as well as chemicals previously unseen during training of the model. […] All chemicals were purchased from Sigma-Aldrich (St. Louis, Mo., USA). Chemicals were dissolved and diluted into GARD input concentration in either water or DMSO prior to stimulation of cells. For chemicals dissolved in DMSO, the in-well concentration of DMSO was 0.1%. Monitoring of chemical cytotoxicity and establishment of GARD input concentration for each chemical compound was performed as previously described. […] Toxic compounds were used at a concentration yielding 90% relative viability (Rv90). The criterion that was first met determined the GARD input concentration for each compound.
as §1

[3] = Max solubility of chemicals for establishing the GARD input concentration
[4] = test system: CD86; assay: CD86 expression of MUTZ-3 cells following chemical stimulation (flow cytometry); assay type: cell-based, human; settings: MUTZ-3, 24 h stimulation, compared with vehicle/unstimulated cells, student's t-test p<0.05
Experimental: CD86 expression of MUTZ-3 cells following chemical stimulations. […] Statistical significance was determined by student's t-test, comparing each stimulation with its corresponding vehicle, with p<0.05 indicated by *.
Maintenance of cells, chemical stimulation of MUTZ-3 and all subsequent isolation of mRNA and preparation of cDNA were performed as previously described [41,42]. In short, a phenotypic control of MUTZ-3 was performed using flow cytometry prior to chemical stimulation to ensure cells were in an immature state. The following FITC-conjugated mouse monoclonal antibodies (mAbs) were used: CD1a (DakoCytomation, Glostrup, Denmark), CD34, CD86, HLA-DR, IgG1 (BD Biosciences, Franklin Lakes, N.J.). The following PE-conjugated mouse monoclonal antibodies were used: CD14 (DakoCytomation), CD54, CD80, IgG1 (BD Biosciences). Cell viability was determined using Propidium Iodide (BD Biosciences) staining. Samples were run on FACSCanto II instrument. Data was acquired using FACS Diva software (BD Biosciences) and analyzed using FCS Express V4 (De Novo Software, Los Angeles, Calif.). Gating was performed to exclude cell debris and non-viable cells based on forward- and side-scattering properties and quadrants established using isotype-controls. During chemical exposure, cells were seeded at 200.000 cells/ml in 24-well plates and exposed to chemical compound at the GARD input concentration. Stimulated cells were harvested after 24 h incubation at 37° C., 5% CO2 and RNA was isolated with TRIzol® reagent (Life Technologies, Carlsbad, Calif.) using standardized protocols provided by the manufacturer. In parallel, a control of the maturity state of the cells was performed by flow cytometric analysis of CD86.
Prior to chemical challenge, cells were quality controlled by measuring the cellular expression of common myeloid and dendritic cell markers using flow cytometry. These markers included CD1a, CD14, CD34, CD54, CD80, CD86 and HLA-DR.

[5] = concentration yielding 90% relative viability, MUTZ-3, Table 2
[6] = respiratory sensitizer if any replicate stimulation has SVM decision value >0
[7] = reference compounds used during assay development (Table 1)
[8] = concentration yielding 90% relative viability, MUTZ-3, Table 1

SMILES	Classification Pos if 1 sample >0 [1]	SVM decision value ([1]; replicate 1)	SVM decision value ([1]; replicate 2)	SVM decision value ([1]; replicate 3)	also measured
CCCCO [1-Butanol]	Sensitizer (key: Sensitizer: classified as a respiratory sensitizer if any of replicate stimulations have a SVM decision value > 0)	−0.32	0.12		
O=[N+]([O-])c1ccc(Cl)c([N+](=O)[O-])c1 [2,4-dinitrochlorobenzene]		−1.66	−1.18	−1.90	Rv90 [2, 5]: 4 µM; Classification Pos if 1 sample >0 [1, 6]: Non-sensitizer
CCCCCCCC(=O)O [Octanoic acid]	Non-sensitizer	−0.65	−0.79	−1.22	
O=C=Nc1ccc(Cc2ccc(N=C=O)cc2)cc1 [Methylene diphenol diisocyanate]					Max solubility [3, 7]: 50 µM
O=C(O)c1ccccc1O [Salicylic acid]	Non-sensitizer	−0.73	−1.08	−1.13	
Sc1nc2ccccc2s1 [2-mercaptobenzothiazole]		−0.44	−0.43	−0.57	
O=C1OC(=O)c2ccccc21 [Phtalic Anhydride]		0.20	−0.12		Classification Pos if 1 sample >0 [1, 6]: Sensitizer (classified as a respiratory sensitizer if any of replicate stimulations have a SVM decision value > 0); Max solubility ([3]; chemicals of the independent dataset (Table 2)): 200 µM; Max solubility [3, 7]: 200 µM
O=Cc1ccccc1 [Benzaldehyde]		−0.79	−0.87	−0.70	Classification Pos if 1 sample >0 [1, 6]: Non-sensitizer
OCC(O)CO [Glycerol]	Non-sensitizer	−1.05	−1.11	−0.77	
C=O [Formaldehyde]					Rv90 ([2]; human): 80 µM
CCOC(=O)c1ccccc1C(=O)OCC [Diethyl phthalate]		−1.37	−0.96	−1.22	Classification Pos if 1 sample >0 [1, 6]: Non-sensitizer
CC=Cc1ccc(O)c(OC)c1 [Isoeugenol]					Rv90 ([2]; human): 300 µM
Oc1ccccc1 [Phenol]	Non-sensitizer				
C=CC(=O)OCCO [2-Hydroxyethyl acrylate]					Rv90 [2, 8]: 100 µM
O=CCCCC=O [Glutaraldehyde]					Rv90 ([2]; human): 10 µM; Chemically induced up-regulation of CD86 [4]: statistically significant
Cc1ccc(S(=O)(=O)[N-]Cl)cc1.[Na+] [Chloramine T]		0.52	0.59		Classification Pos if 1 sample >0 [1, 6]: Sensitizer (classified as a respiratory sensitizer if any of replicate stimulations have a SVM decision value > 0)
CCCCCCCCCCCCOS(=O)(=O)[O-].[Na+] [Sodium dodecyl sulphate]	Non-sensitizer	−1.49	−0.80	−1.30	Rv90 [2, 5]: 200 µM
CC(O)C(=O)O (centres unmarked) [Lactic acid]		−1.20	−0.81	−0.89	
Nc1ccc(N)cc1 [p-phenylenediamine]		−1.38	−1.19	−1.80	Rv90 [2, 5]: 75 µM; Classification Pos if 1 sample >0 [1, 6]: Non-sensitizer
O=C(O)c1ccc(O)cc1 [p-hydroxybenzoic acid]	Non-sensitizer	−0.81	−0.56	−1.09	
Oc1cccc(O)c1 [Resorcinol]	Non-sensitizer	−1.01	−0.99	−1.40	
C1CNCCN1 [Piperazine]	Non-sensitizer	−0.05	−0.12		
OCC=Cc1ccccc1 [Cinnamyl alcohol]	Non-sensitizer	−0.57	−1.44	−1.26	
Clc1ccccc1 [Chlorobenzene]		−1.03	−0.76	−1.15	SVM decision value ([1]; replicate 4): 0.24; SVM decision value ([1]; replicate 5): 0.06; Classification Pos if 1 sample >0 [1, 6]: Sensitizer (classified as a respiratory sensitizer if any of replicate stimulations have a SVM decision value > 0)
O=CC=O [Glyoxal]		−1.02	−0.69	−0.56	Rv90 [2, 5]: 300 µM; Classification Pos if 1 sample >0 [1, 6]: Non-sensitizer
C=CCc1ccc(O)c(OC)c1 [Eugenol]	Non-sensitizer	−1.67	−1.53	−1.51	Rv90 ([2]; human): 300 µM
Nc1ccccc1O [2-Aminophenol]					Rv90 [2, 8]: 100 µM; Chemically induced up-regulation of CD86 [4]: up-regulation of CD86 was also observed
